Literature values as cited in patent US20230203007A1, “PYRIDINYLACETAMIDE DERIVATIVES AS SODIUM CHANNEL ACTIVATORS” (priority 2021, published 2023).

Tests used:
Nav1.1 = molecular target: T1, Nav1.1 (Homo sapiens, UniProt P35498); details: Nav1.1-expressing HEK cells
T1 construct: host or cells: HEK cells

Nav1.5 = Nav1.5 (Homo sapiens, UniProt Q14524); details: relative to Nav1.1 activation
Nav1.2 = Nav1.2 (Homo sapiens, UniProt Q99250); details: relative to Nav1.1 activation
Nav1.2, sequence (Q99250 whole entry): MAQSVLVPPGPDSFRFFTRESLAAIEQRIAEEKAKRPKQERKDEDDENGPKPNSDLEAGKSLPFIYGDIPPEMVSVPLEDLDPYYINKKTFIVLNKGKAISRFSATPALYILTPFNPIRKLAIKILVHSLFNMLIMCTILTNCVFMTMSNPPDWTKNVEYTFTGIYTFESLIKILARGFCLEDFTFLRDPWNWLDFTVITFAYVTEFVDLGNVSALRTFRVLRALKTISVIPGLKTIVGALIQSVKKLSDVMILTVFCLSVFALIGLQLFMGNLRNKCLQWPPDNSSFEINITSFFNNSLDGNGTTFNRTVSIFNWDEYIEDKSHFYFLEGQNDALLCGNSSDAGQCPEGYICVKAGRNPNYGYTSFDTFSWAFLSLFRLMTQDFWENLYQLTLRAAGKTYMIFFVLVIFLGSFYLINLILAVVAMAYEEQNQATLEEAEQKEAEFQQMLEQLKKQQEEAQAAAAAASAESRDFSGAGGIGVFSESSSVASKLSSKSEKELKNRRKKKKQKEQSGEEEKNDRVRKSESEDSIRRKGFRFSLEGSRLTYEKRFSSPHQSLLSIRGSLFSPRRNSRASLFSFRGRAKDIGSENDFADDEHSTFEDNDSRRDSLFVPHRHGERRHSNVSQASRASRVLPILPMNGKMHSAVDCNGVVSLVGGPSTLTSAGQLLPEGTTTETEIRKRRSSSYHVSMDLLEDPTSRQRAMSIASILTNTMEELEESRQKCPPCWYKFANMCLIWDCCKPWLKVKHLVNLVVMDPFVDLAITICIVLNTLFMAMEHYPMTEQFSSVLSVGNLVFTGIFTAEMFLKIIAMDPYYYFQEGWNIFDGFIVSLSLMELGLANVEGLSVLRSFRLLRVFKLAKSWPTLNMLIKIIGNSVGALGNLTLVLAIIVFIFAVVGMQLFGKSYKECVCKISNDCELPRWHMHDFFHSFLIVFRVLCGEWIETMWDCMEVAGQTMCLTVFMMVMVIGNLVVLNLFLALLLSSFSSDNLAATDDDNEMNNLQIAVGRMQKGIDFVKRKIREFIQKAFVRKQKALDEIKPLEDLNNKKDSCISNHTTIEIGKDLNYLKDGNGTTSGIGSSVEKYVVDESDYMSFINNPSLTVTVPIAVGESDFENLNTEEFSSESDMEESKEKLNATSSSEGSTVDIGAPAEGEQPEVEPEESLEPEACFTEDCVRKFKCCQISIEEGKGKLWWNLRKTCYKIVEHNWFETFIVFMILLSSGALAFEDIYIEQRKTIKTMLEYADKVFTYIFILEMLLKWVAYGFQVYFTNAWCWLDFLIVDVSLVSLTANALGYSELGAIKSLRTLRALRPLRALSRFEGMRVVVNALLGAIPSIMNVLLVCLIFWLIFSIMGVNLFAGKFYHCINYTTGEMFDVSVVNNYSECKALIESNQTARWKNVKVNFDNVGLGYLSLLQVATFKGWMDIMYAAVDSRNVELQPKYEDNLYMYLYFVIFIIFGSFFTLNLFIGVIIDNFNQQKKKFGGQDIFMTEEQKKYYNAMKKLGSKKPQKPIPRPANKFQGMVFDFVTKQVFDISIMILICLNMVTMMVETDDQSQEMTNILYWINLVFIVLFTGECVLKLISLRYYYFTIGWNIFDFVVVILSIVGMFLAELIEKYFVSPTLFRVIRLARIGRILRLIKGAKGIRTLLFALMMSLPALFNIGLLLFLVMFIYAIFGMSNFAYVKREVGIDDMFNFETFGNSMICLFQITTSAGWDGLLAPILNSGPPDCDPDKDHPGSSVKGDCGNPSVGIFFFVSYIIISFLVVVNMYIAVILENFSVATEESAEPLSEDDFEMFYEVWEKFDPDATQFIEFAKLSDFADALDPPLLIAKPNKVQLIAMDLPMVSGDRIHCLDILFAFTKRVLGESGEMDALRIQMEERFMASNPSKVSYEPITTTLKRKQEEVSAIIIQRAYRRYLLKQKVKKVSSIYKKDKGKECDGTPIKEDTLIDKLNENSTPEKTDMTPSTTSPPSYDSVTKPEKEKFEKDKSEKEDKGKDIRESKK

Nav1.5, sequence (Q14524 whole entry): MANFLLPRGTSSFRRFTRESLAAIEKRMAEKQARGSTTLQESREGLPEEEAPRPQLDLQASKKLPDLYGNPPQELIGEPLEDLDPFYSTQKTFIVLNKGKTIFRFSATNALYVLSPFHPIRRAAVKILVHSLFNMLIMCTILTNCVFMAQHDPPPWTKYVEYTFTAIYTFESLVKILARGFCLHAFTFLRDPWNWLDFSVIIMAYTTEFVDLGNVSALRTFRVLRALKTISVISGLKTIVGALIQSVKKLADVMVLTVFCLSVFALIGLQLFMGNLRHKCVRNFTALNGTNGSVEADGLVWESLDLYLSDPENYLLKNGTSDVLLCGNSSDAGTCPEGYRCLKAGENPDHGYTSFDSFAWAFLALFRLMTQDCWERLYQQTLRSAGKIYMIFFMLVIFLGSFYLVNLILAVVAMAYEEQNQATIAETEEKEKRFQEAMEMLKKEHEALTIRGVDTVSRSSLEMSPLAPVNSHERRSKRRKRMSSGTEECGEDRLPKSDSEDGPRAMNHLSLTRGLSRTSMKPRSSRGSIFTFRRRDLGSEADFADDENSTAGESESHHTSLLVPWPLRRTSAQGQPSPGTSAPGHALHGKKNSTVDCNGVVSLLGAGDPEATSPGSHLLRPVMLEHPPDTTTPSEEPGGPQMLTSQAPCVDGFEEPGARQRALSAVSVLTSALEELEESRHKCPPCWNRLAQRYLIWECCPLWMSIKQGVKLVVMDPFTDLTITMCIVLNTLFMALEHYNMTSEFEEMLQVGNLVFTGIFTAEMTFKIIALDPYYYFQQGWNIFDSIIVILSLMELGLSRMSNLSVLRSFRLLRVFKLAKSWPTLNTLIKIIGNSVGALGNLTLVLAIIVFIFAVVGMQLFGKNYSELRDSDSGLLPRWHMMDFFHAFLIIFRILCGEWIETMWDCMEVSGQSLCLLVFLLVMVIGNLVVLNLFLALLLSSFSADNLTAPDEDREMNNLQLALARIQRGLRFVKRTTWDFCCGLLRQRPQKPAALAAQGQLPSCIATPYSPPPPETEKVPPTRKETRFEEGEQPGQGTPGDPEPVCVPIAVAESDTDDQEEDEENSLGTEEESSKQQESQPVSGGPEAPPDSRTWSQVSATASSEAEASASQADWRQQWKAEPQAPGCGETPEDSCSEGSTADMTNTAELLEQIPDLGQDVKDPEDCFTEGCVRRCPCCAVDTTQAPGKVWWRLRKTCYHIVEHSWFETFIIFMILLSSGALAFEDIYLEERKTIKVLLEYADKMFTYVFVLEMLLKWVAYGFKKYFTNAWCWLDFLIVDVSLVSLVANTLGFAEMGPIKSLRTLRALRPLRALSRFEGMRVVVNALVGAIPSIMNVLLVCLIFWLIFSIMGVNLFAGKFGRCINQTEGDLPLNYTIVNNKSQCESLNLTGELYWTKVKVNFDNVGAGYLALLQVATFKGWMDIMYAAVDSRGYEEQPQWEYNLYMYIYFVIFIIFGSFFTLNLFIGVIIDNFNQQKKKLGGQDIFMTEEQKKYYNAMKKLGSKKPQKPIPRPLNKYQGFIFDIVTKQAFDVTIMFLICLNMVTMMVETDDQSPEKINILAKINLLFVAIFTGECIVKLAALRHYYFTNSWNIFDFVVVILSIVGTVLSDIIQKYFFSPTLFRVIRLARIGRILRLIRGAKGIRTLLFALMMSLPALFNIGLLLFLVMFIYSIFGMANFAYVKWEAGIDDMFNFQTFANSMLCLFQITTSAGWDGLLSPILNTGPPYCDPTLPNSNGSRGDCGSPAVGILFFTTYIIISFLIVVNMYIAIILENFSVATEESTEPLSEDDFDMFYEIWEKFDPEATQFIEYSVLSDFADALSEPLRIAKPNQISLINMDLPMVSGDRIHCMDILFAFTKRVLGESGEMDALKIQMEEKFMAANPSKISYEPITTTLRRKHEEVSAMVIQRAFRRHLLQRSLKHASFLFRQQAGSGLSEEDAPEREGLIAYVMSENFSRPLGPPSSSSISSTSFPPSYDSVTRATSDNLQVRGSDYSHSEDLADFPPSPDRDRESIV

CCCCNS(=O)(=O)c1ccc(OC)c(-c2nnc3c4ccccc4c(C)nn23)c1 [Lu AE98134]
concentration from which the total area under the curve for the duration of the depolarizing pulse is increased (Nav1.1): ≥ 1 µM | selectivity against Nav1.5 (Nav1.5): low selectivity | selectivity against Nav1.2 (Nav1.2): moderate selectivity
